In patent publication US20250144101A1, “LYSOSOMAL DYSFUNCTION IN NEUROLOGICAL AND PSYCHIATRIC DISORDERS” (The Johns Hopkins University, priority 2022, published 2025):

Experiments:
[1] = tested on: lymphoblasts from BD patients with a Cln3 mutation; experiment: LAMP1 staining of BD/JNCL patient lymphoblasts; format: cell-based, human
Protocol: (§1) LAMP1 staining: Lymphoblasts were fixed with methanol and incubated overnight at 4° C. with anti-human LAMP1 antibody (1:400, Cell Signaling Technology) followed by secondary antibody (Alexa Fluor 488 donkey anti-rabbit IgG, 1:1000, Thermo Fisher Scientific). Neuronal cells differentiated from iPS cells were fixed with 4% paraformaldehyde (PFA) and incubated overnight at 4° C. with anti-human LAMP1 antibody (1:400, Cell Signaling Technology) followed by a secondary antibody (Alexa Fluor 488 donkey anti-rabbit IgG, 1:1000, Thermo Fisher Scientific). White blood cells from mice were fixed with methanol and incubated overnight at 4° C. with LAMP1 antibody (1:1000, Abcam) followed by a secondary antibody (Alexa Fluor 488 donkey anti-rabbit IgG, 1:1000, Thermo Fisher Scientific). KEYENCE BZ-X710 and BX-Z analyzer software were used for imaging quantification.

[2] = tested on: Cln3−/− mice; experiment: Novel object recognition test, BD animal model; format: in vivo; conditions: CLN3 knockout (KO) mice, FIG. 4D
Protocol: Novel Object Recognition Test (NORT): The test was carried out according to the previously validated method (Hatayama et al., Neuroscience 265 (2014) 217-25). All mice were habituated for 1 hour to the NORT arena one day before the test day. On the day of testing, the mice were given two 5-min trials (T1 with two identical objects and T2 with a familiar object from T1 and a novel object), separated by 1-hour interval. The discrimination index (DI) ((time spent exploring the novel object−time spent exploring the familiar object)/total exploration time) was calculated for T2 trials.

[3] = tested on: lymphoblasts from BD patients with a Cln3 mutation; experiment: Cellular autofluorescence (AF) in BD/JNCL patient lymphoblasts by flow cytometry; format: cell-based, human
Protocol: Autofluorescence (AF): AF levels in human blood cells were measured in 30,000 cells using flow cytometry at FL-1 with the BD FACSCalibur™ (BD Biosciences) (Excitation; 488 nm, Emission; 530±15 nm) (for FIGS. 1A-1C). AF levels in lymphoblasts were measured in 20,000 cells using flow cytometry with Attune Flow Cytometer (Thermo Fisher Scientific) (Excitation; 488 nm, Emission; 530 nm) (for FIGS. 2A and 2B).

[4] = tested on: PLA2G7; experiment: RNA-sequencing in iPS cell-derived neurons: PLA2G7 expression; format: cell-based; conditions: WT and CLN3 KO human iPS cell-derived neurons, treated 2 weeks vs mock, FIG. 5B
Excerpt: (§2) RNA-sequencing in iPS cell-derived neurons: Cells were differentiated from iPS cells and treated either with 0.1% DMSO or Compound A for 2 weeks. RNAs were extracted using RNeasy Mini Kit (QIAGEN). The libraries for RNA-sequencing were constructed by SMART-Seq v4 Ultra Low Input RNA Kit (Takara bio).

[5] = tested on: Cln3−/− mice; experiment: LAMP1 staining of peripheral white blood cells, BD animal model; format: in vivo; conditions: CLN3 knockout (KO) mice, FIG. 4C
Protocol: as §1
Isolation of white blood cells from peripheral blood of mice: 20 μL of blood of mice was lysed with ACK lysing buffer (Lonza) for 1 min. After washing, cells were resuspended with RPMI.

[6] = tested on: PLA2G4A; experiment: RNA-sequencing in iPS cell-derived neurons: PLA2G4A expression; format: cell-based; conditions: WT and CLN3 KO human iPS cell-derived neurons, treated 2 weeks vs mock, FIG. 5A
Excerpt: as §2

[7] = tested on: Neuronal cells differentiated from Cln3 mutant iPSCs; experiment: LAMP1 staining of neuronal cells differentiated from Cln3 mutant iPSCs; format: cell-based, human; conditions: 0.4-10 μM, n=2-3, FIG. 2D
Protocol: as §1

[8] = tested on: α-galactosidase A; conditions: cells from patients with Fabry disease; cited from earlier work
[9] = tested on: animal model of GM1 gangliosidosis; conditions: cited from earlier work

Structure (SMILES): CC(C)CN1CCCn2c1nc1ccc(NCCN(C)C)cc1c2=O [Compound A, 8-{[2-(dimethylamino)ethyl]amino}-1-(2-methylpropyl)-1,2,3,4-tetrahydro-6H-pyrimido[2,1-b]quinazolin-6-one]
- elevated LAMP1 signal in Batten disease (BD) lymphoblasts ([1]; FIG. 4B): amelioration of elevated LAMP1 signal
- cognitive deficits (novel object recognition test) of BD mice [2]: Amelioration of cognitive deficits
- elevated autofluorescence (AF) in Batten disease (BD) lymphoblasts ([3]; FIG. 4A): amelioration of elevated autofluorescence (AF)
- expression of PLA2G7 [4]: significantly influenced the expression of PLA2 genes
- elevated LAMP1 signal in peripheral white blood cells of BD mice [5]: amelioration of elevated LAMP1 signal
- expression of PLA2G4A [6]: significantly influenced the expression of PLA2 genes

Structure (SMILES): CC(C)c1nc(N(C)S(C)(=O)=O)nc(-c2ccc(F)cc2)c1/C=C/[C@@H](O)C[C@@H](O)CC(=O)O [rosuvastatin]
- anti-LAMP1 staining of JNCL patient lymphoblasts ([1]; 10 μM, n=3, FIG. 2C): decreased it
- lysosomal deficits found in BD lymphoblasts (LAMP1 expression and AF levels) ([1]; cites FIGS. 2C, 2D): ameliorate the lysosomal deficits
- elevated autofluorescence (AF) of JNCL patient lymphoblasts ([3]; 10 μM, FIG. 2B): decreased it
- anti-LAMP1 staining of neuronal cells differentiated from Cln3 mutant iPSCs [7]: dose-dependently decreased it

Structure (SMILES): OC[C@H]1NC[C@H](O)[C@@H](O)[C@H]1O [1-deoxygalactonojirimycin (DGJ), 1-deoxygalactonojirimycin]
- residual α-galactosidase A activity [8]: enhance residual α-galactosidase A activity

Structure (SMILES): CCCCCCCCNC1C=C(CO)C(O)C(O)C1O (stereo not drawn) [N-octyl 4-epi-β-valienamine (NOEV), N-octyl 4-epi-β-valienamine]
- residual activity in the brain [9]: increased residual activity in the brain
